Data: patent publication US8486991B2, “Enantiomerically pure phosphoindoles as HIV inhibitors” (Idenix Pharmaceuticals, Inc., priority 2006, dated 2013)
Read-outs that look alike come from different tables or passages of the source. *1 amine or outer side, *2 acyl side, *3 side chain or, on linkers, in order; H or OH if unused. Where a SMILES comes first, the peptide text is derived from it. Bridges are numbered along the chain shown (N, C = ends). Roman numbers before positions name the chains, in order. [ ]: non-standard residue; d: D form. Actinocin(9to1) = Cc1c2oc3c(C)ccc(C(=O)[*:1])c3nc-2c(C(=O)[*:2])c(N)c1=O; NMeV = CN[C@H](C(=O)O)C(C)C; Sar = CNCC(=O)O

Assays:
[1] = tested on: HIV-2 ROD; assay: HIV-2 ROD WT in H9 cell assay; type: cell-based; settings: Human immunodeficiency virus 2, H9; Table 18; highest concentration assayed 1.25 μM; read-out: EC50 Values
Method: The susceptibility of HIV type 2 ROD in H9 cells to Compound I and Compound III was determined against zidovudine (AZT) as a control.

[2] = target: T1, human DNA polymerase gamma (Homo sapiens, UniProt P54098); assay: Human cellular DNA polymerase gamma assay; type: biochemical
T1 sequence (P54098 1-1239): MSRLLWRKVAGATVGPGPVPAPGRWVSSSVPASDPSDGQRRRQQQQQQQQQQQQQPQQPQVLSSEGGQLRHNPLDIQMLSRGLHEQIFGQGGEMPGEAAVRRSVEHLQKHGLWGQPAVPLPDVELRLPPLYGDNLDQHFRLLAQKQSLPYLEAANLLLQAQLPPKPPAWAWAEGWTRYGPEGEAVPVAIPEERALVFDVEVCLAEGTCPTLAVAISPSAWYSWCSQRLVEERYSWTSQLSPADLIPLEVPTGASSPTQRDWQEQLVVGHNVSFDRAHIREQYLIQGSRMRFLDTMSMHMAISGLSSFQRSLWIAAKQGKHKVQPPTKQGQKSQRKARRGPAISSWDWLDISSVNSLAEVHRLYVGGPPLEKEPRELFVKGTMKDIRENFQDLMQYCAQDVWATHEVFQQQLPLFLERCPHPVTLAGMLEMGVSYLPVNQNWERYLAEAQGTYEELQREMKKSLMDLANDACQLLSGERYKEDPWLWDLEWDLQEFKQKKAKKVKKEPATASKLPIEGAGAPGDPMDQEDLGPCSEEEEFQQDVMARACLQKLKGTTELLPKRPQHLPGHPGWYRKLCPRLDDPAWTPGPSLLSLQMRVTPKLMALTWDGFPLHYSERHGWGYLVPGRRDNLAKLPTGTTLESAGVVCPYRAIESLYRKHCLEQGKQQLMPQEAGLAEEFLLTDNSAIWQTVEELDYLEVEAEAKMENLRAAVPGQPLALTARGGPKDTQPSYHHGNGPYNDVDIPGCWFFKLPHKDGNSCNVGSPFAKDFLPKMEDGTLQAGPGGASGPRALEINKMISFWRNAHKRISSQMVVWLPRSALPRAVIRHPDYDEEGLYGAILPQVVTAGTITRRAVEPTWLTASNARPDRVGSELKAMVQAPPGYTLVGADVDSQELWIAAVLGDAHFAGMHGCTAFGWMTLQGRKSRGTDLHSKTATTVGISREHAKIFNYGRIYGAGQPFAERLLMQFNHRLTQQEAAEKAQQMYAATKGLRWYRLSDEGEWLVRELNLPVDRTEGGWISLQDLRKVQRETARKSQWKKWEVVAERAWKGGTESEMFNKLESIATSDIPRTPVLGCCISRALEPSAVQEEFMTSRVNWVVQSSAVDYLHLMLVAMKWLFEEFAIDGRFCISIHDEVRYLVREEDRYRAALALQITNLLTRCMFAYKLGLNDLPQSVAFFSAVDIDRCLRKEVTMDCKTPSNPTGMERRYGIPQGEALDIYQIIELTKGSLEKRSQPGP
Text: (§1) HIV RT, like other viral polymerase, shares limited structural homology with the cellular DNA polymerases responsible for normal nuclear and mitochondrial DNA synthesis and repair. This raises the formal possibility that inhibitors of HIV RT might inhibit cellular polymerases, resulting in cellular toxicity. In particular, inhibition of polymerase gamma has the potential to result in mitochondrial toxicity. The ability of Compound I and Compound III to inhibit cellular DNA polymerases was assessed using standard in vitro assays (Table 5).

[3] = target: human DNA polymerase beta (Homo sapiens, UniProt P06746); assay: Human cellular DNA polymerase beta assay; type: biochemical
Text: as §1

[4] = target: T2, human DNA polymerase alpha (Homo sapiens, UniProt P09884); assay: Human cellular DNA polymerase alpha assay; type: biochemical
T2 sequence (P09884 1-1462): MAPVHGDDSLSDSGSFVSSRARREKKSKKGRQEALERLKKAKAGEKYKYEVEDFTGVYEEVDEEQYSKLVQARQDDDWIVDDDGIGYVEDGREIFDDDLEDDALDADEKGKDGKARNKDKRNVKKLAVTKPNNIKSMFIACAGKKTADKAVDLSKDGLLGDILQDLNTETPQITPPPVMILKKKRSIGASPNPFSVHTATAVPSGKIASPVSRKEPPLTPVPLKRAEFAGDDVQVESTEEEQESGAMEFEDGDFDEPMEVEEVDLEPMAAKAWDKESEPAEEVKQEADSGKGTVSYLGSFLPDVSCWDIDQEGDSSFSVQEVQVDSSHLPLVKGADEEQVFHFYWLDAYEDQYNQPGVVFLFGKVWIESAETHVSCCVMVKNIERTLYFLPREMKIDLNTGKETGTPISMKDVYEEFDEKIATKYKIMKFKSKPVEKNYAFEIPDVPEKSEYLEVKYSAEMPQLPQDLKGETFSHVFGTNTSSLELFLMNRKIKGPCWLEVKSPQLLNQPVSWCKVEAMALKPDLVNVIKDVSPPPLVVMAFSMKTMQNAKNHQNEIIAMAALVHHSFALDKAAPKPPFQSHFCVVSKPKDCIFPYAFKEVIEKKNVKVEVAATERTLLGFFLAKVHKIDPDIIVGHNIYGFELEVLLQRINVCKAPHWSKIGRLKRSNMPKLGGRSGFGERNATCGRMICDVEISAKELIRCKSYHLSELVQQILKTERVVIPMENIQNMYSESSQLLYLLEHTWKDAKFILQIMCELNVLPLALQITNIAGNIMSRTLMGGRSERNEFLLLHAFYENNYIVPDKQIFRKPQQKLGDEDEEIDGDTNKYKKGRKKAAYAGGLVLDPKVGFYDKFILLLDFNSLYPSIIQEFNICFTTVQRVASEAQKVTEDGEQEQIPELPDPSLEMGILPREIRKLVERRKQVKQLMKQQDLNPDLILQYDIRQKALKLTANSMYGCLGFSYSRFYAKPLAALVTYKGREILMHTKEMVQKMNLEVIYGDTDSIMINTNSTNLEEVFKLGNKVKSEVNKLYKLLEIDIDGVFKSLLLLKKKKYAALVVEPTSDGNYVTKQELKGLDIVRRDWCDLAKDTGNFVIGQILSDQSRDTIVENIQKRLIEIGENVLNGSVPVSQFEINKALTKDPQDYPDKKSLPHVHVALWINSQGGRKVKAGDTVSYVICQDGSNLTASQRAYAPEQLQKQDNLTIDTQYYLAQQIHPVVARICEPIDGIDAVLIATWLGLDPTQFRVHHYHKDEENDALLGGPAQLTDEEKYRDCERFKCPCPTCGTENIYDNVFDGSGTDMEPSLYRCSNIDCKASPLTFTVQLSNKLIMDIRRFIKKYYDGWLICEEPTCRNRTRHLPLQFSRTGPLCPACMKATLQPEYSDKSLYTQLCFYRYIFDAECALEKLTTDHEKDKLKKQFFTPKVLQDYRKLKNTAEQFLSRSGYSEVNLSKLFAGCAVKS
Text: as §1

[5] = target: CYP3A4 (Homo sapiens, UniProt P08684); assay: Recombinant CYP450 inhibition, fluorometric, CYP3A4; type: in vitro ADME; design: from tissue; host or cells: pooled human liver microsomes
Method: (§2) Compounds were assayed using recombinant human microsomal proteins with fluorometric substrates. Signal was measured with a Fusion plate reader utilizing the appropriate excitation and emission wavelength set to detect the specific metabolite: […]

[6] = tested on: HIV-1 BH10 K103N mutant virus; assay: microbe, parasite or virus in culture; type: cell-based; settings: Human immunodeficiency virus 1, MT4, read-out: EC50, K103N, Example 16 comparative tables; unit inferred
[7] = tested on: HIV-1 BH10 wild-type virus; assay: microbe, parasite or virus in culture; type: cell-based; settings: Human immunodeficiency virus 1, MT4, read-out: EC50, BH10, Example 16 comparative tables; unit inferred; several lines per compound
[8] = tested on: HIV-1 BH10 wild-type virus; assay: CPE / cell protection assay, MT-4 cells, BH10 wild-type; type: cell-based; settings: Human immunodeficiency virus 1, MT4; Cell Protection Assay tables; unit inferred; read-out: EC50, BH10
Method: (§3) The activity of the compounds was also assessed with the same virus and cell type using a different assay readout based on cytopathic effect (CPE).
(§4) MT-4 cells (Source: NIH Catalog #120) were seeded onto 96-well cell culture plates (1×10^4 cells per well in 50 μL).
(§5) The final DMSO concentration in the assay was 0.5% in 120 μL. Cell cultures were then incubated at 37° C./5% CO2 for 4 days. Then, Cell Titer 96 AQueous One Solution Cell Proliferation Assay (Promega) was used to measure cell viability. Briefly, the One Solution Reagent was added directly to culture wells (20 μL/well), incubated for 5 hours, and the absorbance was recorded at 492 nm using the Sunrise Tecan Spectrophotometer.
(§6) The EC50 values were determined from the percent inhibition versus concentration data using a sigmoidal non-linear regression analysis based on four parameters with Tecan Magellan software.

[9] = tested on: HIV-1 BH10 K103N mutant virus; assay: microbe, parasite or virus in culture; type: cell-based; settings: Human immunodeficiency virus 1, MT4, read-out: EC50, K103N
Method: as §3, §4, §5, §6

[10] = target: CYP2C9 (Homo sapiens, UniProt P11712); assay: Recombinant CYP450 inhibition, Luciferin-H, CYP2C9; type: in vitro ADME; design: from tissue; host or cells: pooled human liver microsomes; settings: highest concentration tested 10 μM
Method: CYP2C9 inhibition was performed by incubating a luminogenic CYP450 substrate Luciferin-H with CYP2C9 and an NADPH regeneration system. Luminescence measured using a Fusion plate reader.

[11] = target: CYP2D6 (Homo sapiens, UniProt P10635); assay: Recombinant CYP450 inhibition, fluorometric, CYP2D6; type: in vitro ADME; design: from tissue; host or cells: pooled human liver microsomes; settings: recombinant human CYP2D6 microsomal protein, read-out: percentage of inhibition at the highest concentration tested, CYP2D6
Method: as §2

[12] = tested on: CYP3A4 (activation of PXR in DPX2 cells); assay: CYP3A4 induction screen in DPX2 cells; type: cell-based, human; settings: extent compared with rifampicine, mifepristone, androstanol
Text: The potential for in vitro induction of CYP3A4 was screened in DPX2 cells. The DPX2 cell line is a derivative of a human hepatocellular carcinoma cell line (HepG2) transformed with the human pregnane x receptor (PXR) and a reporter gene vector containing the enhancer region of CYP3A4. The potential for in vitro induction of CYP1A2 was screened in CYP1A2-DRE cells. The CYP1A2-DRE cell line is a stably transformed HepG2 cells with dioxin response elements (DRE) and reporter gene containing CYP1A2 promoter elements. The extent of CYP3A4 induction was determined by comparing the activation of PXR obtained with test article to that obtained with rifampicine (potent inducer), mifepristone (moderate inducer) and androstanol (weak inducer). The extent of CYP1A2 induction was determined by comparing the activation of the aryl hydrocarbon receptor (AhR) obtained with test article to that obtained with TCDD (potent inducer), omeprazole (moderate inducer), and 2-acetylaminofluorene (weak inducer).

[13] = Table 6, N=4, read-out: Mean IC50 Values ± Standard Deviation, DNA Pol Gamma

Chain of CYP3A4 (P08684 whole entry, the tested form may be a part): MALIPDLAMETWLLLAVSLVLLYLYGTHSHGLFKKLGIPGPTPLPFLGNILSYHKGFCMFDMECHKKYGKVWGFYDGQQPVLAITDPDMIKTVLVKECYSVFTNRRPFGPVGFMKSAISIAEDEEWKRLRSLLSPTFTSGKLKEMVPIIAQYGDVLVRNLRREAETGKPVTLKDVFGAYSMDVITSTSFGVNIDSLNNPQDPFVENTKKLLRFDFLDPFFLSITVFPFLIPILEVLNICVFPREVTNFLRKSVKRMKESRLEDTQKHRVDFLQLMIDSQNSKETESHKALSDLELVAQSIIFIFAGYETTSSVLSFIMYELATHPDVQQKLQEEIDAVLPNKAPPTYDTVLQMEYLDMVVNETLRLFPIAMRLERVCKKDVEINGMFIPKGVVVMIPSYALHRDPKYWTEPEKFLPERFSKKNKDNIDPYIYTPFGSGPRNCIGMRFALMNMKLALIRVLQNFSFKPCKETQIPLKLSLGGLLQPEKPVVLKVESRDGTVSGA
Chain of CYP2D6 (P10635 whole entry): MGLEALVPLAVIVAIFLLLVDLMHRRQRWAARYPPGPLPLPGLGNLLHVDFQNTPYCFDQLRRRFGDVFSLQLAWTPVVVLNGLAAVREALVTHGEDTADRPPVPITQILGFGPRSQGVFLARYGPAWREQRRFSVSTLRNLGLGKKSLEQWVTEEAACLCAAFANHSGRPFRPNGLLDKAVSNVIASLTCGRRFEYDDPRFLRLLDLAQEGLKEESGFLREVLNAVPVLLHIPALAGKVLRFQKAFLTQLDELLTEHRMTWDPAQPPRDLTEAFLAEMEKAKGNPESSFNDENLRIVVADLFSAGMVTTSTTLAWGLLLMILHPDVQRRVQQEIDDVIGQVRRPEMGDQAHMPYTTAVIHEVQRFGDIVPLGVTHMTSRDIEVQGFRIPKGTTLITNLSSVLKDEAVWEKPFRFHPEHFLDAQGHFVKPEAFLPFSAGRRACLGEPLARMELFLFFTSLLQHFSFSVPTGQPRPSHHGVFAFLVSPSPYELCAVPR
Chain of CYP2C9 (P11712 whole entry, the tested form may be a part): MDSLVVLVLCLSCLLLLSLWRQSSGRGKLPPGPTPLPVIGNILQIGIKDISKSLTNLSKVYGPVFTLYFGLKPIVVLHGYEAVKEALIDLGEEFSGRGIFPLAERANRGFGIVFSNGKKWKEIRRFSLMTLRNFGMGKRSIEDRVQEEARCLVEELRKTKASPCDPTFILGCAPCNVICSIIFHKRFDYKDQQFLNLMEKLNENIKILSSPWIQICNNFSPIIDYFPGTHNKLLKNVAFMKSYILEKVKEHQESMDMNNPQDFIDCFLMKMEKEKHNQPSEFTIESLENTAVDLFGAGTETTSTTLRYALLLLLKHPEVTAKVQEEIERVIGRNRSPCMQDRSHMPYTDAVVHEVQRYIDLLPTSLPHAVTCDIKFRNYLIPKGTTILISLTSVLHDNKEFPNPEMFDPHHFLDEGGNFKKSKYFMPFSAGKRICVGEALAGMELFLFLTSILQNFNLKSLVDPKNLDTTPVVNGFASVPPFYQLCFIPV

For Cc1cn([C@H]2C[C@H](N=[N+]=[N-])[C@@H](CO)O2)c(=O)[nH]c1=O [AZT, zidovudine, reference compound], the EC50 [1] was 162 ± 76.7 nM.
Cc1c2oc3c(C)ccc(C(=O)N[C@@H]4C(=O)N[C@H](C(C)C)C(=O)N5CCC[C@H]5C(=O)N(C)CC(=O)N(C)[C@@H](C(C)C)C(=O)O[C@@H]4C)c3nc-2c(C(=O)N[C@@H]2C(=O)N[C@H](C(C)C)C(=O)N3CCC[C@H]3C(=O)N(C)CC(=O)N(C)[C@@H](C(C)C)C(=O)O[C@@H]2C)c(N)c1=O [Act. D, actinomycin D, reference compound] (I: T[dV]P[Sar][NMeV] / II: T[dV]P[Sar][NMeV]; ester I:1-I:C, II:1-II:C; linker I:N-II:N via Actinocin(9to1)) was tested, and the IC50 ([2]; Table 5, preliminary data from a single experiment, read-out: Average IC50 Values, DNA Pol Gamma) was 16900 nM, the IC50 [2, 13] was 11800 ± 1900 nM and the IC50 ([3]; Table 5, read-out: Average IC50 Values ± Standard Deviation, DNA Pol Beta) was 23000 ± 10400 nM. The IC50 ([3]; Table 6, N=4, read-out: Mean IC50 Values ± Standard Deviation, DNA Pol Beta) was 23000 ± 10400 nM, the IC50 ([4]; Table 5, read-out: Average IC50 Values ± Standard Deviation, DNA Pol Alpha) was 16100 ± 11200 nM and the IC50 ([4]; Table 6, N=4, read-out: Mean IC50 Values ± Standard Deviation, DNA Pol Alpha) was 16100 ± 11200 nM.
With CO[P@@](=O)(c1cc(C)cc(/C=C/C#N)c1)c1c(C(N)=O)[nH]c2ccc(Cl)c(F)c12 [Compound II, (2-Carbamoyl-5-chloro-4-fluoro-1H-indol-3-yl)-[3-((E)-2-cyano-vinyl)-5-methyl-phenyl]-(S)-phosphinic acid methyl ester] the IC50 [5] was 3210 nM, the EC50 [6] was 920 nM and the EC50 [7] was 192 nM. The EC50 [8] was 62 ± 19 nM and the EC50 [9] was 277 ± 99 nM.
Compound CO[P@@](=O)(c1cc(C)cc(/C=C/C#N)c1)c1c(C(N)=O)[nH]c2ccc(Cl)cc12 [IV, (2-carbamoyl-5-chloro-1H-indol-3-yl)-[3-((E)-2-cyano-vinyl)-5-methyl-phenyl]-(S)-phosphinic acid methyl ester] has an IC50 ([5]; recombinant, highest concentration tested 10 μM, read-out: IC50, CYP3A4) of 2960 nM, an IC50 [10] of 3380 nM and an inhibition at 10 µM [11] of 29.1%. The “Induction, DPX2 (CYP3A4)” value [12] was “Moderate (n = 1)”, the EC50 [8] was 0.2 ± 0.1 nM and the EC50 [9] was 0.3 nM.
With “dideoxycytidine triphosphate [ddCTP, reference compound]” the IC50 [2, 13] was 1500 ± 600 nM.
